System: norovirus VLPs (GII.4, GII.3, GII.17)
Assay: In vitro selection by cDNA display against VLPs with appearance frequency analysis of sequences
Conditions: count among peptide aptamer sequences obtained after in vitro selection cycles (7 cycles GII.4, 5 cycles GII.3 and GII.17)
Procedure: The constructed cDNA display and VLPs were incubated in 100 μL of a dialysis selection buffer (20 mM HEPES (pH 7.4), 150 mM NaCl, and 0.05% s Tween 20) at the concentrations shown in Table 9 below at 25° C. for 30 minutes. Subsequently, the resultant was diluted to 1 mL with the dialysis selection buffer, and was put in Float-A-Lyzer G2 Dialysis Device CE, 1000kD MWCO (manufactured by Spectrum Laboratories, Inc.) and was dialyzed with 1 L of the dialysis selection buffer as the external solution at 25° C. During the dialysis, the external solution was replaced with new one 3 times every 2 hours, and the dialysis was performed overnight (for 8 hours) after the 4th replacement. The dialysis product was concentrated with Amicon Ultra 100K (manufactured by Merck Millipore S.A.S.) at 14,000×g for 5 minutes.
To an immunoplate (C-BOTTOM, CLEAR, MICROLON (registered trademark), HIGH BINDING, manufactured by Greiner Bio-One), 100 μL of 3 μg/mL GII.3 or GII.17 VLP solution was added and immobilization was performed at 4° C. overnight. Subsequently, the solution was discarded, and 200 μL of a blocking agent (EMD Millipore™ Blok™ NSB Blocking agents, Thermo Fisher Scientific) was added, followed by gently stirring at room temperature for 2 hours for blocking. On this occasion, wells not immobilizing the VLP were also subjected to similar blocking to be used in preselection.
The solution was discarded from the wells, the wells were washed with 200 μL of a wash buffer (10 mM Hepes (pH 7.4), 150 mM NaCl, and 0.05% Tween 20) three times, and 100 μL of cDNA display (constructed from 1.5 pmol of mRNA-linker) was then put in the wells not immobilizing the VLP, followed by gently stirring at room temperature for 30 minutes to perform preselection. Subsequently, the supernatant containing cDNA display that had not bound to the blocking agent was put in the wells immobilizing the VLP, followed by gently stirring at room temperature for 30 minutes to be bound to the VLP. The supernatant was discarded, washing with 100 μL of the wash buffer was performed four times, and 100 μL of a 5′ SDS solution was then added, followed by incubation at 50° C. for 15 minutes to elute the bound cDNA display.
Subsequently, the VLP-cDNA display complex obtained above was diluted to 100 μL with a dialysis selection buffer, and 10 μL of a coprecipitating agent (Quick-Precip Plus Solution, manufactured by EdgeBio) and 220 μL of 100% ethanol were added, followed by centrifugation at 20,000×g for 5 minutes. Subsequently, the supernatant was discarded, and 1 mL of 70, ethanol was added for rinsing. […] The PCR program was (a) 98° C. for 2 minutes, (b) 95° C. for 20 seconds, (c) 69° C. for 20 seconds, (d) 72° C. for 20 seconds (steps (b) to (d) were performed 25 cycles), and (e) 72° C. for 1 minute.
After the in vitro selection cycle (7 cycles for GII.4 and 5 cycles for GII.3 and GII.17 based on the libraries of 7 cycles obtained by GII.4 dialysis), a sequence library was prepared by the following method, and the sequence information was analyzed. The preparation of the sequence library and the sequencing were performed according to the 16S Metagenomic Sequencing Library Preparation protocol (manufactured by Illumina, Inc.).
The Fastq file of the obtained sequence was converted to a Fasta file, all of the obtained sequences were simultaneously translated from the first base of the start codon (ATG) at position 115 to the third base of the cysteine codon (TGC) at position 156 of the library sequence (SEQ ID NO: 279) using software MEGA.

## 145 (RRRTFH; Designed peptide) [compound 145]
  Appearance Frequency: 7

## 179 (GCLSHH; Designed peptide) [compound 179]
  Appearance Frequency: 6

## 254 (STEFAR; Designed peptide) [compound 254]
  Appearance Frequency: 6

## 269 (YYPDHP; Designed peptide) [compound 269]
  Appearance Frequency: 6

## 124 (KVHGST; Designed peptide) [compound 124]
  Appearance Frequency: 7

## 161 (WVYARR; Designed peptide) [compound 161]
  Appearance Frequency: 7

## 35 (TKRQNL; Designed peptide) [compound 35]
  Appearance Frequency: 11

## 67 (SKHLAG; Designed peptide) [compound 67]
  Appearance Frequency: 9

## 217 (NDHDHH; Designed peptide) [compound 217]
  Appearance Frequency: 6

## 80 (HICIRR; Designed peptide) [compound 80]
  Appearance Frequency: 8

## 12 (LNWSRS; Designed peptide) [compound 12]
  Appearance Frequency: 15

## 73 (EWAVSK; Designed peptide) [compound 73]
  Appearance Frequency: 8

## 244 (RTVPSS; Designed peptide) [compound 244]
  Appearance Frequency: 6

## 236 (RIVLES; Designed peptide) [compound 236]
  Appearance Frequency: 6

## 65 (SGTMQE; Designed peptide) [compound 65]
  Appearance Frequency: 9

## 6 (FLDTLG; Designed peptide) [compound 6]
  Appearance Frequency: 17

## 255 (STLVCP; Designed peptide) [compound 255]
  Appearance Frequency: 6

## 199 (IGRTFH; Designed peptide) [compound 199]
  Appearance Frequency: 6

## 206 (KSMNNG; Designed peptide) [compound 206]
  Appearance Frequency: 6

## 143 (RRCKLL; Designed peptide) [compound 143]
  Appearance Frequency: 7

## 66 (SGYYRV; Designed peptide) [compound 66]
  Appearance Frequency: 9

## 171 (DWPYSR; Designed peptide) [compound 171]
  Appearance Frequency: 6

## 123 (KRGGMV; Designed peptide) [compound 123]
  Appearance Frequency: 7

## 78 (GQRLTV; Designed peptide) [compound 78]
  Appearance Frequency: 8

## 57 (HVRPFY; Designed peptide) [compound 57]
  Appearance Frequency: 9

## 162 (YRARMS; Designed peptide) [compound 162]
  Appearance Frequency: 7

## 227 (QFSQLG; Designed peptide) [compound 227]
  Appearance Frequency: 6

## 175 (FPFYHR; Designed peptide) [compound 175]
  Appearance Frequency: 6

## 252 (SRSHWG; Designed peptide) [compound 252]
  Appearance Frequency: 6

## 219 (NKSFHR; Designed peptide) [compound 219]
  Appearance Frequency: 6

## 5 (RCSHLR; Designed peptide) [compound 5]
  Appearance Frequency: 18

## 134 (NPKAHL; Designed peptide) [compound 134]
  Appearance Frequency: 7

## 221 (NRVKPR; Designed peptide) [compound 221]
  Appearance Frequency: 6

## 265 (WVFVKH; Designed peptide) [compound 265]
  Appearance Frequency: 6

## 70 (AVGCHV; Designed peptide) [compound 70]
  Appearance Frequency: 8

## 136 (PVLHLH; Designed peptide) [compound 136]
  Appearance Frequency: 7

## 213 (MQFELV; Designed peptide) [compound 213]
  Appearance Frequency: 6

## 242 (RTISGS; Designed peptide) [compound 242]
  Appearance Frequency: 6

## 205 (KHAWDL; Designed peptide) [compound 205]
  Appearance Frequency: 6

## 215 (NAVSLK; Designed peptide) [compound 215]
  Appearance Frequency: 6

## 40 (FPFGST; Designed peptide) [compound 40]
  Appearance Frequency: 10

## 260 (VMSPCN; Designed peptide) [compound 260]
  Appearance Frequency: 6

## 117 (HHYRGL; Designed peptide) [compound 117]
  Appearance Frequency: 7

## 152 (SWPFCT; Designed peptide) [compound 152]
  Appearance Frequency: 7

## 77 (GMLRFP; Designed peptide) [compound 77]
  Appearance Frequency: 8

## 13 (SVQSWK; Designed peptide) [compound 13]
  Appearance Frequency: 15

## 97 (VISLET; Designed peptide) [compound 97]
  Appearance Frequency: 8

## 120 (IGKGMV; Designed peptide) [compound 120]
  Appearance Frequency: 7

## 113 (GMSCGI; Designed peptide) [compound 113]
  Appearance Frequency: 7

## 211 (LTALSV; Designed peptide) [compound 211]
  Appearance Frequency: 6

## 98 (VVWFTD; Designed peptide) [compound 98]
  Appearance Frequency: 8

## 146 (RSAAGD; Designed peptide) [compound 146]
  Appearance Frequency: 7

## 14 (RSVRMH; Designed peptide) [compound 14]
  Appearance Frequency: 14

## 246 (SAMFAS; Designed peptide) [compound 246]
  Appearance Frequency: 6

## 127 (LISRHD; Designed peptide) [compound 127]
  Appearance Frequency: 7

## 90 (SSCVMP; Designed peptide) [compound 90]
  Appearance Frequency: 8

## 42 (GNSPYT; Designed peptide) [compound 42]
  Appearance Frequency: 10

## 251 (SKYTAL; Designed peptide) [compound 251]
  Appearance Frequency: 6

## 233 (RGTMWL; Designed peptide) [compound 233]
  Appearance Frequency: 6

## 157 (VRPSNG; Designed peptide) [compound 157]
  Appearance Frequency: 7

## 129 (MHSSLS; Designed peptide) [compound 129]
  Appearance Frequency: 7

## 167 (CLHFAL; Designed peptide) [compound 167]
  Appearance Frequency: 6

## 36 (VNGVSH; Designed peptide) [compound 36]
  Appearance Frequency: 11

## 50 (VIEMLD; Designed peptide) [compound 50]
  Appearance Frequency: 10

## 267 (YKASHG; Designed peptide) [compound 267]
  Appearance Frequency: 6

## 197 (HWLRSV; Designed peptide) [compound 197]
  Appearance Frequency: 6

## 8 (PCSYFS; Designed peptide) [compound 8]
  Appearance Frequency: 17

## 4 (HLRSIR; Designed peptide) [compound 4]
  Appearance Frequency: 18

## 209 (LNDMSF; Designed peptide) [compound 209]
  Appearance Frequency: 6

## 140 (RFVKRR; Designed peptide) [compound 140]
  Appearance Frequency: 7

## 256 (STSVDW; Designed peptide) [compound 256]
  Appearance Frequency: 6

## 62 (RALAKR; Designed peptide) [compound 62]
  Appearance Frequency: 9

## 48 (VDSTSV; Designed peptide) [compound 48]
  Appearance Frequency: 10

## 74 (FPYARN; Designed peptide) [compound 74]
  Appearance Frequency: 8

## 22 (GLRYRE; Designed peptide) [compound 22]
  Appearance Frequency: 12

Source: patent publication US20220221458A1, “NOROVIRUS-BINDING PEPTIDE” (Kao Corporation, priority 2019, published 2022)
